Test results: patent publication US9446064B2, “Combination therapy for treating cancer” (Epizyme, Inc., priority 2013, dated 2016)

What was measured:
[1] = tested on: MOLM-13 (MLL-AF9) cells; test: Combination proliferation study with Compound A2 (Cell Titer Glo, Chou-Talalay combination index); type: cell-based; details: 7 day cotreatment
Protocol: (§1) The acute myelogenous leukemia cell lines MV4-11 (MLL-AF4) and MOLM-13 (MLL-AF9) were obtained from American Type Culture Collection (ATCC; Rockville, Md.) and Deutsche Sammlung von Mikroorganismen and Zellkulturen (DSMZ; Braunschweig, Germany) respectively.
(§2) Initial proliferation studies were performed to determine the IC50 of a given compound in each cell line.
(§3) Compounds were evaluated for synergy in the co-treatment phase by testing the compounds in a concentration range which was bracketed around their IC50 values. […] DMSO concentration was kept at 0.1% v/v.
(§4) Further, strong synergism is achieved when the CI value falls below 0.3.

[2] = tested on: MV4-11 (MLL-AF4) cells; test: as above; type: cell-based; details: 7 day cotreatment
Protocol: as §1, §2, §3, §4

SMILES | Combination effect with Compound A2 (combination index) [1] | Combination effect with Compound A2 (combination index) [2]
N[C@@H]1C[C@H]1c1ccccc1 (racemic) [Tranylcypromine] | synergy | synergy
Nc1ccn([C@@H]2O[C@H](CO)[C@@H](O)[C@@H]2O)c(=O)n1 [Ara-C] | – | Synergy (A combination index less than one indicates synergy)
COc1cc2c(cc1-c1c(C)noc1C)ncc1[nH]c(=O)n([C@H](C)c3ccccn3)c12 [IBET-151] | – | Synergy (A combination index less than one indicates synergy)
CC1(C)CCC(c2ccc(Cl)cc2)=C(CN2CCN(c3ccc(C(=O)NS(=O)(=O)c4ccc(N[C@H](CCN5CCOCC5)CSc5ccccc5)c(S(=O)(=O)C(F)(F)F)c4)cc3)CC2)C1 [Navitoclax] | synergy | synergy
CC(C)(C)c1cc(NC(=O)Nc2ccc(-c3cn4c(n3)sc3cc(OCCN5CCOCC5)ccc34)cc2)no1 [Quizartinib] | – | synergy
